Reference: ChEMBL document CHEMBL4219205, “Utilizing a structure-based docking approach to develop potent G protein-coupled receptor kinase (GRK) 2 and 5 inhibitors” (Bioorg Med Chem Lett, 2018)

Experiments:
[1] = target: T1, Rhodopsin kinase GRK1 (Homo sapiens, UniProt Q15835); experiment: Inhibition of GRK1 (unknown origin) preincubated for 10 mins followed by peptide substrate and ATP addition measured after 1 hr by TR-FRET assay
T1 sequence (Q15835 whole entry): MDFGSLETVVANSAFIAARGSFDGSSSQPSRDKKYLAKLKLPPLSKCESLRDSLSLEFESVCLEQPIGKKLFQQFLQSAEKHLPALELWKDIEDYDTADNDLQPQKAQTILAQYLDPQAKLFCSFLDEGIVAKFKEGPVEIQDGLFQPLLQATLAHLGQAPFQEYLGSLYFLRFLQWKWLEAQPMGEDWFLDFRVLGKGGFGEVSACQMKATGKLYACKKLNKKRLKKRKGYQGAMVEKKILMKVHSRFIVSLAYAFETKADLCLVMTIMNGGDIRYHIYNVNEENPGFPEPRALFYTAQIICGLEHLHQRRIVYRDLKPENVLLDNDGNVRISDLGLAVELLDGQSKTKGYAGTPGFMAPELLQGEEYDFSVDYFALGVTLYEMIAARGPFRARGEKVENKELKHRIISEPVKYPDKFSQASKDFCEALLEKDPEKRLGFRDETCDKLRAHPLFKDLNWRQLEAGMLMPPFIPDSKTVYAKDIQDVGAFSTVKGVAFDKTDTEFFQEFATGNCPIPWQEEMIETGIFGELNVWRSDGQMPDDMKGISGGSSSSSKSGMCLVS

[2] = target: G protein-coupled receptor kinase 5 (Homo sapiens, UniProt P34947); experiment: Inhibition of GRK5 (unknown origin) preincubated for 10 mins followed by peptide substrate and ATP addition measured after 1 hr by TR-FRET assay
Sequence of G protein-coupled receptor kinase 5 (P34947 whole entry): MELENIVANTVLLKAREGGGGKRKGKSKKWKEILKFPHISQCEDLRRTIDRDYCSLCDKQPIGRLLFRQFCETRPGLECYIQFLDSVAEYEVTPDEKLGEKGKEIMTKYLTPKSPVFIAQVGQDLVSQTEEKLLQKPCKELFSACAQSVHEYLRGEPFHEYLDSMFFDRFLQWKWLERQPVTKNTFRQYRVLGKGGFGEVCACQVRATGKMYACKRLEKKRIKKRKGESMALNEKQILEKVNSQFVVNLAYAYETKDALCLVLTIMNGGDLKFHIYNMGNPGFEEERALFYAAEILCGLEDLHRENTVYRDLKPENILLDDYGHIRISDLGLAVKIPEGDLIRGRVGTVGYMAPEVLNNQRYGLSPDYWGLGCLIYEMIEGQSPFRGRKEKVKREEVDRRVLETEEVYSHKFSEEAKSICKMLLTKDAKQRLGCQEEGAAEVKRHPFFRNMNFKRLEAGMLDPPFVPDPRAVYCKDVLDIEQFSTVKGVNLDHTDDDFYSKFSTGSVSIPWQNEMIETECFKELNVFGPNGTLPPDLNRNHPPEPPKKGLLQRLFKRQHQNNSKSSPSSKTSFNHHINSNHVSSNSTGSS

[3] = target: T2, Beta-adrenergic receptor kinase 1 (Homo sapiens, UniProt P25098); experiment: Inhibition of GRK2 (unknown origin) preincubated for 10 mins followed by peptide substrate and ATP addition measured after 1 hr by TR-FRET assay
T2 sequence (P25098 whole entry): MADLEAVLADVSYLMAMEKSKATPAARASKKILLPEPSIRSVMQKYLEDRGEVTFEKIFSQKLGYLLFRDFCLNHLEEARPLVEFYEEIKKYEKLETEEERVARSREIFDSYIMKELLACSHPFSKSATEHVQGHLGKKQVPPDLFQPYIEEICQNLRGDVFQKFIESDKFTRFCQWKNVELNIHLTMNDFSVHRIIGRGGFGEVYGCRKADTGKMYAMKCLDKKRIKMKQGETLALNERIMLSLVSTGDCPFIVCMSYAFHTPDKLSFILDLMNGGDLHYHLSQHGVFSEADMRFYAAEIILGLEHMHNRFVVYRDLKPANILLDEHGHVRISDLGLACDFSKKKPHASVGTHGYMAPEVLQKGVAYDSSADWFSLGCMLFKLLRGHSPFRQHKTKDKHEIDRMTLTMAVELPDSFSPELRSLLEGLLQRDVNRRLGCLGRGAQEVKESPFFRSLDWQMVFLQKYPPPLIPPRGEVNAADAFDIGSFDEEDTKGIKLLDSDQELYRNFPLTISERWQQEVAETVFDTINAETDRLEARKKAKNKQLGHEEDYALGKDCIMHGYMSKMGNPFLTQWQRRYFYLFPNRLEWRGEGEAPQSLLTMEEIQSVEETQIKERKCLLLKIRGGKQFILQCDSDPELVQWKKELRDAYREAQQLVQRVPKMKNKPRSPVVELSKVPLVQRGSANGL

[4] = species on record: Homo sapiens; experiment: Selectivity ratio of IC50 for GRK5 (unknown origin) to IC50 for GRK2 (unknown origin) by phosphorylation assay

Row | Structure (SMILES) | IC50 [1] | IC50 [2] | IC50 [3] | Ratio IC50 [4]
1 | COCCCC1CCCCN1C(=O)c1cc(C2NC(=O)NC(C)=C2C(=O)Nc2ccc3[nH]ncc3c2)ccc1F (stereo not drawn) | > 100 µM | > 100 µM | 29 µM | 
2 | CC1=C(C(=O)Nc2ccc3[nH]ncc3c2)C(c2ccc(F)c(CC(=O)N(CCO)CCC(C)C)c2)NC(=O)N1 (stereo not drawn) | > 100 µM |  | 1.5 µM | 
3 | CC1=C(C(=O)Nc2ccc3[nH]ncc3c2)C(c2ccc(F)c(CCC(=O)N(CC(C)C)C(C)C)c2)NC(=O)N1 (stereo not drawn) | > 100 µM | > 100 µM | 12 µM | 
4 | CC1=C(C(=O)Nc2ccc3[nH]ncc3c2)C(c2ccc(F)c(C(=O)N(C)Cc3cc(C)[nH]n3)c2)NC(=O)N1 (stereo not drawn) | > 100 µM |  | 1.1 µM | 
5 | CC1=C(C(=O)Nc2ccc3[nH]ncc3c2)C(c2ccc(F)c(CC(=O)NCC3CCN(C4CC4)CC3)c2)NC(=O)N1 (stereo not drawn) | > 100 µM |  |  | 
6 | CC1=C(C(=O)Nc2ccc3[nH]ncc3c2)C(c2ccc(F)c(C(=O)NC(C)CCCC(C)C)c2)NC(=O)N1 (stereo not drawn) | > 100 µM | > 100 µM | 4.1 µM | 
7 | CCc1nc(CNC(=O)c2cc(C3NC(=O)NC(C)=C3C(=O)Nc3ccc4[nH]ncc4c3)ccc2F)no1 (stereo not drawn) | 3 µM |  |  | 
8 | C#CCN(Cc1ccco1)C(=O)Cc1cc(C2NC(=O)NC(C)=C2C(=O)Nc2ccc3[nH]ncc3c2)ccc1F (stereo not drawn) | > 100 µM | 3.5 µM | 0.92 µM | 
9 | CC1=C(C(=O)Nc2ccc3[nH]ncc3c2)C(c2ccc(F)c(CC(=O)NCc3ccc(C#N)nc3)c2)NC(=O)N1 (stereo not drawn) | > 100 µM |  | 1.4 µM | 
10 | CC1=C(C(=O)Nc2ccc3[nH]ncc3c2)C(c2ccc(F)c(CC(=O)N3Cc4ccc(C)cc4C3)c2)NC(=O)N1 (stereo not drawn) | > 100 µM | 6.3 µM | 0.2 µM | 
11 | COC(=O)C1(NC(=O)c2cc(C3NC(=O)NC(C)=C3C(=O)Nc3ccc4[nH]ncc4c3)ccc2F)CCCCC1 (stereo not drawn) | 83 µM |  | 0.16 µM | 
12 | CCC(C)CN(CCO)C(=O)Cc1cc(C2NC(=O)NC(C)=C2C(=O)Nc2ccc3[nH]ncc3c2)ccc1F (stereo not drawn) | > 100 µM | 9.3 µM | 0.83 µM | 
13 | CC1=C(C(=O)Nc2ccc3[nH]ncc3c2)C(c2ccc(F)c(CC(=O)N3CCCC(C(C)(C)C)CC3)c2)NC(=O)N1 (stereo not drawn) | > 100 µM | > 100 µM | 3.5 µM | 
14 | CC1=C(C(=O)Nc2ccc3[nH]ncc3c2)C(c2ccc(F)c(C(=O)NCc3cn4ccccc4n3)c2)NC(=O)N1 (stereo not drawn) | 17 µM | 1.9 µM | 0.54 µM | 3.5
15 | CC1=C(C(=O)Nc2ccc3[nH]ncc3c2)C(c2ccc(F)c(C(=O)NCC(C)N3CCCCCC3)c2)NC(=O)N1 (stereo not drawn) | > 100 µM |  | 1.2 µM | 
16 | C#CCN(CC(C)C)C(=O)Cc1cc(C2NC(=O)NC(C)=C2C(=O)Nc2ccc3[nH]ncc3c2)ccc1F (stereo not drawn) | > 100 µM | 13 µM | 2.4 µM | 
17 | CC1=C(C(=O)Nc2ccc3[nH]ncc3c2)C(c2ccc(F)c(CCC(=O)NCC3(CO)CC3)c2)NC(=O)N1 (stereo not drawn) | > 100 µM | > 100 µM | 3.8 µM | 
18 | CC1=C(C(=O)Nc2ccc3[nH]ncc3c2)C(c2ccc(F)c(C(=O)NC3CN4CCC3CC4)c2)NC(=O)N1 (stereo not drawn) | > 100 µM |  | 0.5 µM | 
19 | CC1=C(C(=O)Nc2ccc3[nH]ncc3c2)C(c2ccc(F)c(C(=O)NC3CC4CCC3(C)C4(C)C)c2)NC(=O)N1 (stereo not drawn) | > 100 µM | > 100 µM | 4.6 µM | 
20 | CCCOC1CCN(C(=O)Cc2cc(C3NC(=O)NC(C)=C3C(=O)Nc3ccc4[nH]ncc4c3)ccc2F)C1 (stereo not drawn) | > 100 µM |  | 1.6 µM | 

Row | Structure (SMILES) | IC50 [1] | IC50 [2] | IC50 [3] | Ratio IC50 [4]
21 | CC1=C(C(=O)Nc2ccc3[nH]ncc3c2)C(c2ccc(F)c(CCC(=O)NCc3ncc(C)o3)c2)NC(=O)N1 (stereo not drawn) | > 100 µM |  |  | 
22 | CC1=C(C(=O)Nc2ccc3[nH]ncc3c2)C(c2ccc(F)c(C(=O)NCc3cnc4c(c3)CCC4)c2)NC(=O)N1 (stereo not drawn) | > 100 µM | 9.5 µM | 0.34 µM | 
23 | CC1=C(C(=O)Nc2ccc3[nH]ncc3c2)C(c2ccc(F)c(CC(=O)NCc3cc(C)ccc3C)c2)NC(=O)N1 (stereo not drawn) | > 100 µM | > 100 µM | 1.9 µM | 
24 | CC1=C(C(=O)Nc2ccc3[nH]ncc3c2)C(c2ccc(F)c(CC(=O)NC3CC(=O)N(C)C3)c2)NC(=O)N1 (stereo not drawn) | > 100 µM |  | 1.9 µM | 
25 | CC#CCN(CCCC)C(=O)Cc1cc(C2NC(=O)NC(C)=C2C(=O)Nc2ccc3[nH]ncc3c2)ccc1F (stereo not drawn) | > 100 µM | 2.4 µM | 0.43 µM | 
26 | CC1=C(C(=O)Nc2ccc3[nH]ncc3c2)C(c2ccc(F)c(CC(=O)N3CCOC(CCO)C3)c2)NC(=O)N1 (stereo not drawn) | > 100 µM |  |  | 
27 | COCc1noc(CNC(=O)c2cc(C3NC(=O)NC(C)=C3C(=O)Nc3ccc4[nH]ncc4c3)ccc2F)n1 (stereo not drawn) | 30 µM |  | 0.25 µM | 
28 | CC1=C(C(=O)Nc2ccc3[nH]ncc3c2)C(c2ccc(F)c(CC(=O)N(CCO)Cc3ccco3)c2)NC(=O)N1 (stereo not drawn) | 26 µM | 1.7 µM | 0.46 µM | 
29 | CC1=C(C(=O)Nc2ccc3[nH]ncc3c2)C(c2ccc(F)c(C(=O)N(C)CC3CCCCO3)c2)NC(=O)N1 (stereo not drawn) | > 100 µM | > 100 µM | 14 µM | 
30 | COc1ccccc1C(C)NC(=O)c1cc(C2NC(=O)NC(C)=C2C(=O)Nc2ccc3[nH]ncc3c2)ccc1F (stereo not drawn) | 16 µM |  | 0.4 µM | 
31 | CCC(C)N(CO)C(=O)Cc1cc(C2NC(=O)NC(C)=C2C(=O)Nc2ccc3[nH]ncc3c2)ccc1F (stereo not drawn) | > 100 µM |  | 1.9 µM | 
32 | CC1=C(C(=O)Nc2ccc3[nH]ncc3c2)C(c2ccc(F)c(CC(=O)N(C)Cc3nc(C)c[nH]3)c2)NC(=O)N1 (stereo not drawn) | > 100 µM |  | 2 µM | 
33 | CC1=C(C(=O)Nc2ccc3[nH]ncc3c2)C(c2ccc(F)c(CCC(=O)NCCc3ccccc3)c2)NC(=O)N1 (stereo not drawn) | > 100 µM | > 100 µM | 4.7 µM | 
34 | CC1=C(C(=O)Nc2ccc3[nH]ncc3c2)C(c2ccc(F)c(CCC(=O)NCC3(C)CCCCC3)c2)NC(=O)N1 (stereo not drawn) | > 100 µM | > 100 µM | 1.8 µM | 
35 | CC1=C(C(=O)Nc2ccc3[nH]ncc3c2)C(c2ccc(F)c(CC(=O)N3CCC4CCC(C3)N4C)c2)NC(=O)N1 (stereo not drawn) | > 100 µM | 6.1 µM | 2.1 µM | 
36 | CC1=C(C(=O)Nc2ccc3[nH]ncc3c2)C(c2ccc(F)c(C(=O)NCCc3c(C)noc3C)c2)NC(=O)N1 (stereo not drawn) | > 100 µM |  | 0.64 µM | 
37 | CCC1(O)CCCN(C(=O)CCc2cc(C3NC(=O)NC(C)=C3C(=O)Nc3ccc4[nH]ncc4c3)ccc2F)C1 (stereo not drawn) | > 100 µM | > 100 µM | 29 µM | 
38 | CC1=C(C(=O)Nc2ccc3[nH]ncc3c2)C(c2ccc(F)c(CC(=O)N(CCCO)CCCO)c2)NC(=O)N1 (stereo not drawn) | > 100 µM |  | 0.75 µM | 
39 | CCC(C)N(C)C(=O)c1cc(C2NC(=O)NC(C)=C2C(=O)Nc2ccc3[nH]ncc3c2)ccc1F (stereo not drawn) | > 100 µM | > 100 µM | 44 µM | 
40 | CCCCCCC(C)NC(=O)c1cc(C2NC(=O)NC(C)=C2C(=O)Nc2ccc3[nH]ncc3c2)ccc1F (stereo not drawn) | > 100 µM |  | 4.1 µM | 
